Our source for the relative viability values is the supplement of paper PMC10307832.

Compound in assay [1]: CC1=NN=C(O1)C2=NN=C(C=C2)N3CCC(CC3)OC4=C(C=CC(=C4)F)Cl
Briefly: relative viability (nuclei count vs DMSO), 5 days (fraction); higher = more cells survive. The method in brief:
(§1)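 Lung cancer cell lines in 1536-well plates were exposed by pinning to five library-drug doses (not always all listed) √10 apart, following an overnight hold at 37 °C. MetaXpress counted Hoechst-stained nuclei from 4× images taken after 5 days without medium change. Viability is the median ratio of treated-well to vehicle-well nuclei across plates. Plates required control CV below 25% and at least one doubling.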

Compound in another assay: CC(C)C[C@@H](C(=O)N[C@H](C(=O)OC1CCCC1)c1ccccc1)[C@H](O)C(=O)NO [Tosedostat]
The description is as above. In outline: as §1

Turning to RERF-LC-KJ, the relative viability amounted to 0.653 in assay [1] (0.253 µM); 0.628 in assay [1] (0.8 µM); 0.652 in assay [1] (2.53 µM); 0.647 in assay [1] (8 µM); 0.953 in the assay with Tosedostat (0.02 µM); 1.03 in the assay with Tosedostat (0.06325 µM). Besides, the relative viability in the assay with Tosedostat (0.2 µM) amounted to 0.944; with Tosedostat (0.6325 µM), 0.888; in the assay with Tosedostat (2 µM) it was 0.876.
Turning to SK-LU-1, the relative viability was found to be 0.935 in assay [1] (0.253 µM); 0.783 in assay [1] (0.8 µM); 0.943 in assay [1] (2.53 µM); 0.722 in assay [1] (8 µM); 1.1 with Tosedostat (0.02 µM); 1.09 with Tosedostat (0.06325 µM). Besides, the relative viability with Tosedostat (0.2 µM) was 0.92; with Tosedostat (0.6325 µM) it was 0.938; with Tosedostat (2 µM), 0.854.
Take SK-MES-1: the relative viability stood at 0.859 in assay [1] (0.253 µM); 0.79 in assay [1] (0.8 µM); 0.912 in assay [1] (2.53 µM); 0.783 in assay [1] (8 µM); 1.03 with Tosedostat (0.02 µM); 1.02 in the assay with Tosedostat (0.06325 µM). Also, the relative viability with Tosedostat (0.2 µM) came out at 1.01; with Tosedostat (0.6325 µM) it was 0.965; in the assay with Tosedostat (2 µM) it was 0.953.
For the cell line SW 900, the relative viability amounted to 0.545 in assay [1] (0.8 µM); 0.805 in assay [1] (2.53 µM); 0.574 in assay [1] (8 µM); 0.887 with Tosedostat (0.02 µM); 0.952 with Tosedostat (0.06325 µM); 0.855 with Tosedostat (0.2 µM). The results for the relative viability in the assay with Tosedostat (0.6325 µM) and with Tosedostat (2 µM) were 0.767 and 0.669, respectively.
Turning to SW 1573, the relative viability was 0.894 in assay [1] (0.253 µM); 0.981 in assay [1] (0.8 µM); 0.942 in assay [1] (2.53 µM); 0.615 in assay [1] (8 µM); 1.07 with Tosedostat (0.02 µM); 0.95 in the assay with Tosedostat (0.06325 µM). For the same cell line, the relative viability in the assay with Tosedostat (0.2 µM) is 0.881; with Tosedostat (0.6325 µM), 0.85; in the assay with Tosedostat (2 µM) it was 0.876.
